The record followed here is the supplement of paper PMC10307832.

Holding throughout (experiment): relative viability (nuclei count vs DMSO), 5 days (fraction); higher = more cells survive
Compound in assay [1]: CCCS(=O)(=O)Nc1ccc(F)c(C(=O)c2c[nH]c3ncc(-c4ccc(Cl)cc4)cc23)c1F [Vemurafenib] + CC(=O)c1c(C)c2cnc(Nc3ccc(N4CCNCC4)cn3)nc2n(C2CCCC2)c1=O [Palbociclib] (partner 0.5 µM)
In short, it runs like this: (§1)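 Lung cancer cell lines were pin-tool dosed in 1536-well plates on the day after seeding, with either a lone drug or a fixed anchor-drug dose plus five library-drug doses (not always all listed) in √10 steps. Nuclei were counted on 4× images after 5 days. Relative viability is the ratio of treated-well to vehicle-well nuclei counts, with each value a median of duplicate plates.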

Compound in the assay “Vemurafenib + Pictilisib”: CCCS(=O)(=O)Nc1ccc(F)c(C(=O)c2c[nH]c3ncc(-c4ccc(Cl)cc4)cc23)c1F [Vemurafenib] + CS(=O)(=O)N1CCN(Cc2cc3nc(-c4cccc5[nH]ncc45)nc(N4CCOCC4)c3s2)CC1 [Pictilisib] (partner 1 µM)
The method in brief: as §1

Compound in the assay “Alpelisib + Trametinib”: Cc1nc(NC(=O)N2CCC[C@H]2C(N)=O)sc1-c1ccnc(C(C)(C)C(F)(F)F)c1 [Alpelisib] + CC(=O)Nc1cccc(-n2c(=O)n(C3CC3)c(=O)c3c(Nc4ccc(I)cc4F)n(C)c(=O)c(C)c32)c1 [Trametinib] (partner 0.02 µM)
In short, it runs like this: as §1

Compound in the assay “Alpelisib + Dasatinib”: Cc1nc(NC(=O)N2CCC[C@H]2C(N)=O)sc1-c1ccnc(C(C)(C)C(F)(F)F)c1 [Alpelisib] + Cc1nc(Nc2ncc(C(=O)Nc3c(C)cccc3Cl)s2)cc(N2CCN(CCO)CC2)n1 [Dasatinib] (partner 0.075 µM)
In short, it runs like this:
as §1

For the cell line ChaGo-K-1, the relative viability was 0.941 in assay [1] (first compound 0.03162 µM); 0.884 in assay [1] (first compound 0.1 µM); 0.878 in assay [1] (first compound 0.3162 µM); 0.913 in assay [1] (first compound 1 µM); 0.657 with Vemurafenib + Pictilisib (first compound 0.03162 µM); 0.587 in the assay with Vemurafenib + Pictilisib (first compound 0.1 µM). Also, the relative viability with Vemurafenib + Pictilisib (first compound 1 µM) stood at 0.625; in the assay with Alpelisib + Trametinib (first compound 0.04 µM), 0.725; in the assay with Alpelisib + Trametinib (first compound 0.1265 µM), 0.963; with Alpelisib + Trametinib (first compound 0.4 µM) it was 0.856; with Alpelisib + Trametinib (first compound 1.265 µM) it was 0.756; with Alpelisib + Trametinib (first compound 4 µM) it was 0.586. For the same cell line, the relative viability amounted to 0.546 with Alpelisib + Dasatinib (first compound 0.04 µM); 0.592 with Alpelisib + Dasatinib (first compound 0.1265 µM); 0.547 with Alpelisib + Dasatinib (first compound 0.4 µM); 0.487 with Alpelisib + Dasatinib (first compound 1.265 µM); 0.452 with Alpelisib + Dasatinib (first compound 4 µM).

In the case of NCI-H1944, the relative viability was found to be 0.332 in assay [1] (first compound 0.03162 µM); 0.313 in assay [1] (first compound 0.3162 µM); 0.385 in assay [1] (first compound 1 µM); 0.318 with Vemurafenib + Pictilisib (first compound 0.03162 µM); 0.326 in the assay with Vemurafenib + Pictilisib (first compound 0.1 µM); 0.331 with Vemurafenib + Pictilisib (first compound 0.3162 µM). The relative viability with Vemurafenib + Pictilisib (first compound 1 µM) stood at 0.307; with Alpelisib + Trametinib (first compound 0.04 µM), 0.354; in the assay with Alpelisib + Trametinib (first compound 0.1265 µM) it was 0.425; with Alpelisib + Trametinib (first compound 0.4 µM), 0.4; with Alpelisib + Trametinib (first compound 1.265 µM), 0.313; in the assay with Alpelisib + Trametinib (first compound 4 µM), 0.275. Besides, the relative viability with Alpelisib + Dasatinib (first compound 0.04 µM) was found to be 0.208; with Alpelisib + Dasatinib (first compound 0.1265 µM), 0.217; with Alpelisib + Dasatinib (first compound 0.4 µM), 0.203; with Alpelisib + Dasatinib (first compound 1.265 µM), 0.163; in the assay with Alpelisib + Dasatinib (first compound 4 µM) it was 0.144.

For H3255, the relative viability came out at 0.318 in assay [1] (first compound 0.03162 µM); 0.301 in assay [1] (first compound 0.3162 µM); 0.307 in assay [1] (first compound 1 µM); 0.474 with Vemurafenib + Pictilisib (first compound 0.03162 µM); 0.48 in the assay with Vemurafenib + Pictilisib (first compound 0.3162 µM); 0.452 with Vemurafenib + Pictilisib (first compound 1 µM). Further, the relative viability was determined as 0.649 in the assay with Alpelisib + Trametinib (first compound 0.04 µM); 0.541 with Alpelisib + Trametinib (first compound 0.1265 µM); 0.642 with Alpelisib + Trametinib (first compound 0.4 µM); 0.422 in the assay with Alpelisib + Trametinib (first compound 1.265 µM); 0.391 with Alpelisib + Trametinib (first compound 4 µM); 0.403 in the assay with Alpelisib + Dasatinib (first compound 0.04 µM). Further, the relative viability came out at 0.345 with Alpelisib + Dasatinib (first compound 0.1265 µM), 0.363 in the assay with Alpelisib + Dasatinib (first compound 0.4 µM), 0.315 with Alpelisib + Dasatinib (first compound 1.265 µM) and 0.256 in the assay with Alpelisib + Dasatinib (first compound 4 µM).

NCI-H2087: the relative viability in assay [1] (first compound 0.03162 µM) turned out to be 0.204; in assay [1] (first compound 0.1 µM) it was 0.222; in assay [1] (first compound 0.3162 µM), 0.266; in assay [1] (first compound 1 µM) it was 0.275; in the assay with Vemurafenib + Pictilisib (first compound 0.03162 µM), 0.728; in the assay with Vemurafenib + Pictilisib (first compound 0.1 µM) it was 0.816. The relative viability worked out at 0.802 with Vemurafenib + Pictilisib (first compound 1 µM); 0.183 in the assay with Alpelisib + Trametinib (first compound 0.04 µM); 0.174 with Alpelisib + Trametinib (first compound 0.1265 µM); 0.195 with Alpelisib + Trametinib (first compound 0.4 µM); 0.163 in the assay with Alpelisib + Trametinib (first compound 1.265 µM); 0.164 with Alpelisib + Trametinib (first compound 4 µM). Moreover, the relative viability with Alpelisib + Dasatinib (first compound 0.04 µM) is 0.959; with Alpelisib + Dasatinib (first compound 0.1265 µM), 0.883; with Alpelisib + Dasatinib (first compound 0.4 µM), 1.12; with Alpelisib + Dasatinib (first compound 1.265 µM), 0.691; in the assay with Alpelisib + Dasatinib (first compound 4 µM), 0.56.

With RERF-LC-KJ, the relative viability in assay [1] (first compound 0.03162 µM) was 1.03; in assay [1] (first compound 0.1 µM), 0.968; in assay [1] (first compound 0.3162 µM), 1.07; in assay [1] (first compound 1 µM) it was 1.11; with Vemurafenib + Pictilisib (first compound 0.03162 µM) it was 0.838; with Vemurafenib + Pictilisib (first compound 0.1 µM), 0.464. In addition, the relative viability is 0.707 in the assay with Vemurafenib + Pictilisib (first compound 0.3162 µM); 0.597 in the assay with Vemurafenib + Pictilisib (first compound 1 µM); 0.86 with Alpelisib + Trametinib (first compound 0.04 µM); 0.933 in the assay with Alpelisib + Trametinib (first compound 0.1265 µM); 0.895 with Alpelisib + Trametinib (first compound 0.4 µM); 0.645 with Alpelisib + Trametinib (first compound 1.265 µM). Further, the relative viability with Alpelisib + Trametinib (first compound 4 µM) was found to be 0.693; with Alpelisib + Dasatinib (first compound 0.04 µM), 0.766; with Alpelisib + Dasatinib (first compound 0.1265 µM), 0.733; with Alpelisib + Dasatinib (first compound 0.4 µM), 0.758; with Alpelisib + Dasatinib (first compound 1.265 µM), 0.475; with Alpelisib + Dasatinib (first compound 4 µM), 0.541.

Regarding NCI-H2228, the relative viability in assay [1] (first compound 0.03162 µM) was 0.698; in assay [1] (first compound 0.1 µM), 0.772; in assay [1] (first compound 0.3162 µM), 0.88; in assay [1] (first compound 1 µM), 0.414; with Vemurafenib + Pictilisib (first compound 0.03162 µM) it was 0.32; in the assay with Vemurafenib + Pictilisib (first compound 0.1 µM) it was 0.362. Also, the relative viability with Vemurafenib + Pictilisib (first compound 0.3162 µM) worked out at 0.684; with Vemurafenib + Pictilisib (first compound 1 µM), 0.358; in the assay with Alpelisib + Trametinib (first compound 0.04 µM), 0.415; with Alpelisib + Trametinib (first compound 0.1265 µM), 0.536; in the assay with Alpelisib + Trametinib (first compound 0.4 µM) it was 0.399; in the assay with Alpelisib + Trametinib (first compound 1.265 µM) it was 0.314. Besides, the relative viability in the assay with Alpelisib + Trametinib (first compound 4 µM) was 0.123; in the assay with Alpelisib + Dasatinib (first compound 0.04 µM) it was 0.519; with Alpelisib + Dasatinib (first compound 0.1265 µM), 0.478; with Alpelisib + Dasatinib (first compound 0.4 µM), 0.414; with Alpelisib + Dasatinib (first compound 1.265 µM), 0.279; with Alpelisib + Dasatinib (first compound 4 µM) it was 0.175.
